In patent US5616606A, “Oligopeptide antiretroviral agents” (priority 1995, dated 1997):
pEC50: −log10 of the molar value. “And” between values parts separate entries of the source, which are not always exact repeats. Equal values may be shown once. Read-outs that look alike come from different tables or passages of the source.

What was measured:
2.2.15 cells = test: toxicity analysis, neutral red dye uptake in 2.2.15 cells; details: triplicate, ± standard deviation
HBV = test: inhibition of HBV DNA replication in 2.2.15 cell cultures; format: cell-based; details: single well, dihydrochloride; for INT[…] DNA MONO.: 24 hours following the 9th day of treatment
[1] = solubility in DMSO, MeOH, H2O; format: physicochemical; details: H2O
poly(dA-dT) = test: ethidium displacement assay, poly(dA-dT); details: relative to ethidium 9.5 × 10^6 M^-1, average of repeat measurements
[2] = test system: T4 lymphocytes (CEM cell line); test: NCI anti-HIV screen, toxicity control in uninfected cells; format: cell-based
[3] = HIV-1 infected CEM cells, 6 days, XTT, Tables VI-X
[4] = dose 1.79 × 10^-6 Molar, Table VI
[5] = dose 1.79 × 10^-7 Molar, Table VI
[6] = dose 1.79 × 10^-8 Molar, Table VI
[7] = dose 5.66 × 10^-6 Molar, Table VI
[8] = dose 5.67 × 10^-7 Molar, Table VI
[9] = dose 5.68 × 10^-8 Molar, Table VI
[10] = dose 5.68 × 10^-9 Molar, Table VI
[11] = dose 1.34 × 10^-3 Molar, Table VII
[12] = dose 1.34 × 10^-4 Molar, Table VII
[13] = dose 1.35 × 10^-5 Molar, Table VII
[14] = dose 1.35 × 10^-6 Molar, Table VII
[15] = dose 4.26 × 10^-4 Molar, Table VII
[16] = dose 4.26 × 10^-5 Molar, Table VII
[17] = dose 4.27 × 10^-6 Molar, Table VII
[18] = dose 4.28 × 10^-7 Molar, Table VII
[19] = dose 1.05 × 10^-8 Molar, Table VIII
[20] = dose 1.09 × 10^-7 Molar, Table VIII
[21] = dose 3.31 × 10^-6 Molar, Table VIII
[22] = dose 3.31 × 10^-7 Molar, Table VIII
[23] = dose 3.32 × 10^-8 Molar, Table VIII
[24] = dose […] 10^-6 Molar, Table VIII

Cl.Cl.Cn1cc(NC(=O)c2cc(NC(=O)CCCCC(=O)Nc3cc(C(=O)Nc4cc(C(=O)NCCC(=N)N)n(C)c4)n(C)c3)cn2C)cc1C(=O)NCCC(=N)N [Compound 7, N,N'-Di(1-methyl-2-[1-methyl-2-carboxamido(3-proprionamidine)-4-pyrrole]-4-pyrrolyl) adipamide dihydrochloride]
NEUTRAL RED DYE UPTAKE (2.2.15 cells; 30 μg/ml): 102 ± 1 % OF CONTROL | NEUTRAL RED DYE UPTAKE (2.2.15 cells; 300 μg/ml): 98 ± 2 % OF CONTROL | INT[…] DNA MONO. (HBV; 10 μM): 2.1 pg/μg CELL DNA and 2.3 pg/μg CELL DNA and 2.2 pg/μg CELL DNA and 2.6 pg/μg CELL DNA | HBV VIRION DNA DAY 0 (HBV; 10 μM, day 0): 75 pg/ml CULTURE MEDIUM and 92 pg/ml CULTURE MEDIUM and 60 pg/ml CULTURE MEDIUM and 55 pg/ml CULTURE MEDIUM | HBV VIRION DNA DAY 6 (HBV; 10 μM): 68 pg/ml CULTURE MEDIUM and 67 pg/ml CULTURE MEDIUM and 57 pg/ml CULTURE MEDIUM and 50 pg/ml CULTURE MEDIUM | HBV VIRION DNA DAY 9 (HBV; 10 μM): 56 pg/ml CULTURE MEDIUM and 57 pg/ml CULTURE MEDIUM and 87 pg/ml CULTURE MEDIUM and 58 pg/ml CULTURE MEDIUM | INT[…] DNA MONO. (HBV; 50 μM): 2.7 pg/μg CELL DNA and 2.5 pg/μg CELL DNA and 2.3 pg/μg CELL DNA | HBV VIRION DNA DAY 6 (HBV; 50 μM): 67 pg/ml CULTURE MEDIUM and 75 pg/ml CULTURE MEDIUM and 83 pg/ml CULTURE MEDIUM and 69 pg/ml CULTURE MEDIUM | HBV VIRION DNA DAY 9 (HBV; 50 μM, zero = undetectable, cutoff 0.1 pg/ml): 63 pg/ml CULTURE MEDIUM and 68 pg/ml CULTURE MEDIUM and 77 pg/ml CULTURE MEDIUM and 66 pg/ml CULTURE MEDIUM | Solubility in H2O [1]: good

Cl.Cl.Cn1cc(NC(=O)c2cc(NC(=O)c3ccc(C(=O)Nc4cc(C(=O)Nc5cc(C(=O)NCCC(=N)N)n(C)c5)n(C)c4)cc3)cn2C)cc1C(=O)NCCC(=N)N [Compound 19b, N,N'-di[1-methyl-2-[1-methyl-2-carboxamido(3-propionamidine)-4-pyrrole]-4-pyrrolyl] terephthalamide dihydrochloride]
pEC50 (HIV-1; [3]): 5.68 | pEC50 (HIV-1; Table XI): 5.92 | INFECTED RESPONSE % of Control (HIV-1; dose 1.79 × 10^-5 Molar, Table VI): 167.25 % of Control | INFECTED RESPONSE % of Control (HIV-1; [4]): 51.73 % of Control | INFECTED RESPONSE % of Control (HIV-1; [5]): 29.97 % of Control | INFECTED RESPONSE % of Control (HIV-1; [6]): 33.00 % of Control | INFECTED RESPONSE % of Control (HIV-1; [7]): 134.54 % of Control | INFECTED RESPONSE % of Control (HIV-1; [8]): 28.86 % of Control | INFECTED RESPONSE % of Control (HIV-1; [9]): 23.70 % of Control | INFECTED RESPONSE % of Control (HIV-1; [10]): 39.64 % of Control | Kapp (poly(dA-dT)): 4.3e+07 M⁻¹ | […] % of Control [2]: 192.17 % of Control | IC50 ([2]; Table XI): 17.9 µM | […] % of Control [2, 4]: 136.50 % of Control | […] % of Control [2, 5]: 92.72 % of Control | […] % of Control [2, 6]: 92.56 % of Control | […] % of Control [2, 7]: 164.46 % of Control | […] % of Control [2, 8]: 88.21 % of Control | […] % of Control [2, 9]: 94.69 % of Control | […] % of Control [2, 10]: 68.62 % of Control | IC50 ([2]; uninfected CEM cells, 6 days, XTT, Tables VI-X): > 1.79 × 10^-5 Molar

Cl.Cl.Cn1cc(NC(=O)c2cc(NC(=O)c3cccc(C(=O)Nc4cc(C(=O)Nc5cc(C(=O)NCCC(=N)N)n(C)c5)n(C)c4)c3)cn2C)cc1C(=O)NCCC(=N)N [Compound 20b, N,N'-di[1-methyl-2-[1-methyl-2-carboxamido(3-propionamidine)-4-pyrrole]-4-pyrrolyl] isophthalamide dihydrochloride]
pEC50 (HIV-1; [3]): 5.45 | INFECTED RESPONSE % of Control (HIV-1; [11]): 4.26 % of Control | INFECTED RESPONSE % of Control (HIV-1; [12]): 63.57 % of Control | INFECTED RESPONSE % of Control (HIV-1; [13]): 117.45 % of Control | INFECTED RESPONSE % of Control (HIV-1; [14]): 29.25 % of Control | INFECTED RESPONSE % of Control (HIV-1; [15]): 0.02 % of Control | INFECTED RESPONSE % of Control (HIV-1; [16]): 120.68 % of Control | INFECTED RESPONSE % of Control (HIV-1; [17]): 64.76 % of Control | INFECTED RESPONSE % of Control (HIV-1; [18]): 48.47 % of Control | Kapp (poly(dA-dT)): 4.9e+07 M⁻¹ | […] % of Control [2, 11]: 10.39 % of Control | […] % of Control [2, 12]: 142.80 % of Control | […] % of Control [2, 13]: 117.76 % of Control | […] % of Control [2, 14]: 131.95 % of Control | […] % of Control [2, 15]: -0.29 % of Control | […] % of Control [2, 16]: 123.27 % of Control | […] % of Control [2, 17]: 123.64 % of Control | […] % of Control [2, 18]: 116.38 % of Control

Cl.Cl.Cn1cc(NC(=O)c2cc(NC(=O)/C=C/C(=O)Nc3cc(C(=O)Nc4cc(C(=O)NCCC(=N)N)n(C)c4)n(C)c3)cn2C)cc1C(=O)NCCC(=N)N [Compound 21b, N,N'-di[1-methyl-2-[1-methyl-2-carboxamido(3-propionamidine)-4-pyrrole]-4-4pyrrolyl] fumaride dihydrochloride]
pEC50 (HIV-1; [3]): 5.78 | pEC50 (HIV-1; Table XI): 5.86 | INFECTED RESPONSE % of Control (HIV-1; [19]): 18.00 % of Control | INFECTED RESPONSE % of Control (HIV-1; [20]): 26.15 % of Control | INFECTED RESPONSE % of Control (HIV-1; [21]): 96.78 % of Control | INFECTED RESPONSE % of Control (HIV-1; [22]): 20.00 % of Control | INFECTED RESPONSE % of Control (HIV-1; [23]): 22.96 % of Control | INFECTED RESPONSE % of Control (HIV-1; [24]): 38.90 % of Control | Kapp (poly(dA-dT)): 4.9e+07 M⁻¹ | […] % of Control [2, 19]: 83.05 % of Control | […] % of Control [2, 20]: 90.26 % of Control | […] % of Control [2, 21]: 151.83 % of Control | […] % of Control [2, 22]: 88.21 % of Control | […] % of Control [2, 23]: 67.56 % of Control | […] % of Control [2, 24]: 83.87 % of Control

Cl.Cl.Cn1cc(NC(=O)c2cc(NC(=O)/C=C\C(=O)Nc3cc(C(=O)Nc4cc(C(=O)NCCC(=N)N)n(C)c4)n(C)c3)cn2C)cc1C(=O)NCCC(=N)N [Compound 22b, N,N'-Di(1-methyl-2-carboxamido(3-(proprionamidine-4-pyrrole]-4-pyrrolyl)maleamidedihydrochloride]
pEC50 (HIV-1; [3]): 5.39 | pEC50 (HIV-1; Table XI): 6.46
